Target: T1, GFP-HIBCH (3-hydroxyisobutyryl-CoA hydrolase) (Homo sapiens, UniProt Q6NVY1)
T1 construct: GFP fusion of HIBCH
T1 sequence (Q6NVY1 1-386): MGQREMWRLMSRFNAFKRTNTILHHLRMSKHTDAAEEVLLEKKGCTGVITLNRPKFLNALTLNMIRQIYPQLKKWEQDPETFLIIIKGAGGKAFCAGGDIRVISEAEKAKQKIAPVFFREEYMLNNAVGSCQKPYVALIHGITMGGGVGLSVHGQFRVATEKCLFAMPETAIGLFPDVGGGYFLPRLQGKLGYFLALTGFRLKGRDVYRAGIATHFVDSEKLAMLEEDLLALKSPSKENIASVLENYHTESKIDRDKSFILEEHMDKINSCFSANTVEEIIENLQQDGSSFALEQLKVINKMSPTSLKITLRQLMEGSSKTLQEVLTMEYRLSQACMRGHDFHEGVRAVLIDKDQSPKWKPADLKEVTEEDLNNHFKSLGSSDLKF
Test: microscale thermophoresis
Type: binding
Settings: GFP-tagged HIBCH; fit of three independent measurements

For `CCCCCCCCCCCCOC(=O)[C@@H](C)[C@@]1(O)[C@@H](O[C@@H]2OC[C@H](O)[C@H](O[C@@H]3OC[C@@H](O)[C@H](O)[C@H]3OC(=O)c3ccc(OC)cc3)[C@H]2OC(C)=O)C[C@H]2[C@@H]3CC=C4C[C@@H](O)CC[C@]4(C)[C@H]3CC[C@@]21C` [SBF-1], the Kd was 35.9 µM.

Reference: paper PMC6692300, “Targeting HIBCH to reprogram valine metabolism for the treatment of colorectal cancer” (Cell Death & Disease, 2019)
